Read-outs that look alike come from different tables or passages of the source.
Experiment: Phase 1 pharmacokinetics after single IV bolus, three-compartment model (Example 3)
Type: in vivo, human
Conditions: for Vd: human, plasma, intravenous, read-out: Vc (central volume of distribution)
Experimental: Regadenoson was administered as an IV bolus (20 seconds) in ascending doses of […], 10, 20 and 30 μg/kg.
Plasma samples were drawn during supine phase (Days 1 and 2) at 0, 1, 2, 3, 4, 5, 7, 10, 15, 20, 30, 45 minutes after dosing and at 1, 1.5, 2, 4, 6, 8, 12 and 24 hours after dosing. Urine was collected for 24 hours for Regadenoson excretion.
A three-compartment open model was fit to the data using observed Tmax (1-4 minutes) as the duration of a zero-order infusion. Reliable parameter estimates were obtained for dose of 1-30 μg/kg. Parameters are summarized in the following (Table 2): […]

**Q.** For `CNC(=O)c1cnn(-c2nc(N)c3ncn([C@@H]4O[C@H](CO)[C@@H](O)[C@H]4O)c3n2)c1` [Regadenoson, (1-{9-[(4S,2R,3R,5R)-3,4-dihydroxy-5-(hydroxymethyl)oxolan-2-yl]-6-aminopurin-2-yl}pyrazol-4-yl)-N-methylcarboxamide], which “K21 (rate constant for transfer from first peripheral to central compartment)” value (Total (all doses), N=22, mean) is on record?
**A.** 0.258 min⁻¹

**Q.** And the “K31 (rate constant for transfer from second peripheral to central compartment)” value (Total (all doses), N=22, mean)?
**A.** 0.0143 min⁻¹

**Q.** And the “Vss (volume of distribution at steady state)” value (Total (all doses), N=22, mean)?
**A.** 75.5 L

**Q.** What about the “K21 (rate constant for transfer from first peripheral to central compartment)” value (dose 1 μg/kg, N=3, mean) of the same compound?
**A.** 0.246 min⁻¹

**Q.** And the “K31 (rate constant for transfer from second peripheral to central compartment)” value (dose 1 μg/kg, N=3, mean)?
**A.** 0.01808 min⁻¹

**Q.** What about the “K21 (rate constant for transfer from first peripheral to central compartment)” value (dose 3 μg/kg, N=4, mean) of the same compound?
**A.** 0.203 min⁻¹

**Q.** What about the “K31 (rate constant for transfer from second peripheral to central compartment)” value (dose 3 μg/kg, N=4, mean) of the same compound?
**A.** 0.0152 min⁻¹

**Q.** What about the “α Half-life” value (dose 3 μg/kg, N=4, mean) of the same compound?
**A.** 3.11 min

**Q.** And the “K21 (rate constant for transfer from first peripheral to central compartment)” value (dose 10 μg/kg, N=4, mean)?
**A.** 0.187 min⁻¹

**Q.** And the “K31 (rate constant for transfer from second peripheral to central compartment)” value (dose 10 μg/kg, N=4, mean)?
**A.** 0.0108 min⁻¹

**Q.** And the “K21 (rate constant for transfer from first peripheral to central compartment)” value (dose 20 μg/kg, N=8, mean)?
**A.** 0.387 min⁻¹

**Q.** And the “K31 (rate constant for transfer from second peripheral to central compartment)” value (dose 20 μg/kg, N=8, mean)?
**A.** 0.0141 min⁻¹

**Q.** What about the “CL (clearance)” value (dose 20 μg/kg, N=8, mean (SD)) of the same compound?
**A.** 743 (123) mL/min

**Q.** What about the “K21 (rate constant for transfer from first peripheral to central compartment)” value (dose 30 μg/kg, N=3, mean) of the same compound?
**A.** 0.0948 min⁻¹

**Q.** And the “K31 (rate constant for transfer from second peripheral to central compartment)” value (dose 30 μg/kg, N=3, mean)?
**A.** 0.0148 min⁻¹

**Q.** What about the “Vss (volume of distribution at steady state)” value (dose 30 μg/kg, N=3, mean) of the same compound?
**A.** 89.6 L

**Q.** What about the “λ Half-life” value (dose 30 μg/kg, N=3, mean) of the same compound?
**A.** 99.4 min

**Q.** And the Vd (1 ug/kg, N=3, mean (SD))?
**A.** 9.84 L

**Q.** And the Vd (3 ug/kg, N=4, mean (SD))?
**A.** 13.7 L

**Q.** What about the Vd (10 ug/kg, N=4, mean (SD)) of the same compound?
**A.** 17.9 L

**Q.** What about the Vd (20 ug/kg, N=8, mean) of the same compound?
**A.** 12.5 L

**Q.** What about the Vd (30 ug/kg, N=3, mean) of the same compound?
**A.** 15.7 L

**Q.** And the Vd (Total (all doses), N=22, mean)?
**A.** 13.8 L

From patent publication US20080170990A1, “Methods for Myocardial Imaging in Patients Having a History of Pulmonary Disease” (CV THERAPEUTICS, INC., priority 2006, published 2008)
